PubChem BioAssay AID248 (DTP/NCI, 2004)
Several values for one entry are separate records, joined by “and”; a condition that tells them apart may be missing. Identical values can stand only once. Toxic doses and inconclusive results are not listed. Cut-off read from the data, not from the text of the source: active = T/C of 150% or more; inactive = T/C below 125%.

Test system: L1210 leukemia ip in BDF1 mice, survival T/C
Experiment: NCI In Vivo Anticancer Drug Screen. Data for tumor model L1210 Leukemia (intraperitoneal) in B6D2F1 (BDF1) mice
Conditions: endpoint: mean survival time, higher = longer survival
Outline: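 Tumor was transplanted into mice, which were then dosed with test compound or vehicle alone. Survival was recorded for each group, and the treated figure was expressed relative to the control figure.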

[1] = dose: 75.0 mg/kg/injection, schedule: Q01DX001 (ip), vehicle: saline
[2] = dose: 150.0 mg/kg/injection, schedule: Q01DX001 (ip), vehicle: saline
[3] = dose: 300.0 mg/kg/injection, schedule: Q01DX001 (ip), vehicle: saline
[4] = dose: 100.0 mg/kg/injection, schedule: Q01DX009 (ip), vehicle: Klucel (hydroxypropylcellulose) (HPC)
[5] = dose: 100.0 mg/kg/injection, schedule: Q04DX003 (ip), vehicle: Klucel (hydroxypropylcellulose) (HPC)
[6] = dose: 200.0 mg/kg/injection, schedule: Q01DX009 (ip), vehicle: Klucel (hydroxypropylcellulose) (HPC)
[7] = dose: 200.0 mg/kg/injection, schedule: Q04DX003 (ip), vehicle: Klucel (hydroxypropylcellulose) (HPC)
[8] = dose: 400.0 mg/kg/injection, schedule: Q01DX009 (ip), vehicle: Klucel (hydroxypropylcellulose) (HPC)
[9] = dose: 400.0 mg/kg/injection, schedule: Q04DX003 (ip), vehicle: Klucel (hydroxypropylcellulose) (HPC)
[10] = dose: 100.0 mg/kg/injection, schedule: Q04DX002 (ip), vehicle: saline with Tween-80
[11] = dose: 200.0 mg/kg/injection, schedule: Q04DX002 (ip), vehicle: saline with Tween-80
[12] = dose: 50.0 mg/kg/injection, schedule: Q01DX009 (ip), vehicle: saline
[13] = dose: 100.0 mg/kg/injection, schedule: Q04DX003 (ip), vehicle: saline
[14] = dose: 200.0 mg/kg/injection, schedule: Q04DX003 (ip), vehicle: saline
[15] = dose: 50.0 mg/kg/injection, schedule: Q01DX001 (ip), vehicle: saline
[16] = dose: 100.0 mg/kg/injection, schedule: Q01DX001 (ip), vehicle: saline
[17] = dose: 200.0 mg/kg/injection, schedule: Q01DX001 (ip), vehicle: saline
[18] = dose: 400.0 mg/kg/injection, schedule: Q01DX001 (ip), vehicle: saline
[19] = dose: 400.0 mg/kg/injection, schedule: Q04DX003 (ip), vehicle: saline

Measured: T/C

CCSC1C(O)C(C(O)CO)OC1n1ccc(=O)[nH]c1=O (configuration not stated)
inactive: dose: 100.0 mg/kg/injection, schedule: Q01DX005 (ip), vehicle: saline 96 % of control | dose: 200.0 mg/kg/injection, schedule: Q01DX005 (ip), vehicle: saline 98 % of control

COC(=O)/C=C\n1cnc2ccccc21
inactive: [1] 109 % of control | [2] 112 % of control | [3] 107 % of control

COc1ccc(N2C(=O)C3C(C2=O)C2(Cl)C(Cl)=C(Cl)C3(Cl)C2(Cl)Cl)c(OC)c1 (configuration not stated)
inactive: [4] 90 % of control | [5] 101 % of control | [6] 95 % of control | [7] 104 % of control | [8] 93 % of control | [9] 92 % of control

O=C(O)c1ccc(CCl)cc1
inactive: [10] 108 % of control | [11] 105 % of control

Cc1ccc(NC(=S)NCCc2ccccn2)cc1C
inactive: [4] 96 % of control | [6] 99 % of control | [8] 91 % of control

NC(=O)c1ccc(Cl)c([N+](=O)[O-])c1
inactive: [5] 110 % of control | [7] 109 % of control

O=C(O)C1C[n+]2ccccc2O1 (configuration not stated)
inactive: [12] 116 % of control | [13] 97 % of control | [14] 103 % of control

CCCSc1ccccc1N1CCNCC1
inactive: [15] 103 % of control | [16] 101 % of control | [17] 101 % of control | [18] 103 % of control

CC(=O)C(=Cc1ccccc1)C(C)=O
inactive: dose: 50.0 mg/kg/injection, schedule: Q01DX009 (ip), vehicle: Klucel (hydroxypropylcellulose) (HPC) 97 % of control | [4] 87 % of control and 90 % of control | [5] 92 % of control | [13] 106 % of control | [6] 95 % of control | [7] 97 % of control | [14] 116 % of control | [8] 91 % of control | [9] 97 % of control | [19] 106 % of control

CC1(C)N=C(N)N=C(N)N1c1cccc(CN)c1
inactive: dose: 25.0 mg/kg/injection, schedule: Q01DX009 (ip), vehicle: saline 101 % of control | dose: 25.0 mg/kg/injection, schedule: Q04DX003 (ip), vehicle: saline 101 % of control | [12] 102 % of control and 103 % of control | dose: 50.0 mg/kg/injection, schedule: Q04DX003 (ip), vehicle: saline 103 % of control | dose: 100.0 mg/kg/injection, schedule: Q01DX009 (ip), vehicle: saline 98 % of control and 86 % of control | [13] 102 % of control and 105 % of control

Cc1ccc(C(=O)CCCN2CCOCC2)c(C)c1
inactive: dose: 5.0 mg/kg/injection, schedule: Q01DX001 (ip), vehicle: saline 105 % of control | dose: 10.0 mg/kg/injection, schedule: Q01DX001 (ip), vehicle: saline 97 % of control | dose: 20.0 mg/kg/injection, schedule: Q01DX001 (ip), vehicle: saline 94 % of control | dose: 40.0 mg/kg/injection, schedule: Q01DX001 (ip), vehicle: saline 108 % of control | dose: 80.0 mg/kg/injection, schedule: Q01DX001 (ip), vehicle: saline 100 % of control | [17] 95 % of control

COc1ccc2nc(NC(=O)NCCCl)sc2c1
inactive: dose: 100.0 mg/kg/injection, schedule: Q01DX001 (ip), vehicle: Klucel (hydroxypropylcellulose) (HPC) 90 % of control | dose: 200.0 mg/kg/injection, schedule: Q01DX001 (ip), vehicle: Klucel (hydroxypropylcellulose) (HPC) 95 % of control | dose: 400.0 mg/kg/injection, schedule: Q01DX001 (ip), vehicle: Klucel (hydroxypropylcellulose) (HPC) 91 % of control

O=C(O)CNCc1cc(=O)[nH]c(=O)[nH]1
inactive: [13] 94 % of control | [14] 97 % of control | [19] 105 % of control

CN=C(NC)c1cccc(NC(=O)Nc2ccc(NC(=O)Nc3cccc(C(=NC)NC)c3)cc2)c1
inactive: dose: 2.3 mg/kg/injection, schedule: Q01DX Z (ip), vehicle: carboxymethylcellulose (CMC) 93 % of control | dose: 3.5 mg/kg/injection, schedule: Q01DX Z (ip), vehicle: carboxymethylcellulose (CMC) 97 % of control | dose: 5.3 mg/kg/injection, schedule: Q01DX Z (ip), vehicle: carboxymethylcellulose (CMC) 95 % of control | dose: 5.5 mg/kg/injection, schedule: Q01DX Z (ip), vehicle: carboxymethylcellulose (CMC) 96 % of control | dose: 8.0 mg/kg/injection, schedule: Q01DX Z (ip), vehicle: carboxymethylcellulose (CMC) 97 % of control | dose: 8.3 mg/kg/injection, schedule: Q01DX Z (ip), vehicle: carboxymethylcellulose (CMC) 98 % of control | dose: 12.5 mg/kg/injection, schedule: Q01DX Z (ip), vehicle: carboxymethylcellulose (CMC) 101 % of control | dose: 18.75 mg/kg/injection, schedule: Q01DX Z (ip), vehicle: carboxymethylcellulose (CMC) 115 % of control

Cc1cc(C)c(C(=O)O)cc1C
inactive: [1] 102 % of control | [2] 94 % of control | [3] 102 % of control

CCSC(SCC)C(SCC)C(O)C(O)C(O)CO (configuration not stated)
inactive: dose: 100.0 mg/kg/injection, schedule: Q01DX001 (ip), vehicle: carboxymethylcellulose (CMC) 106 % of control | dose: 200.0 mg/kg/injection, schedule: Q01DX001 (ip), vehicle: carboxymethylcellulose (CMC) 112 % of control | dose: 400.0 mg/kg/injection, schedule: Q01DX001 (ip), vehicle: carboxymethylcellulose (CMC) 114 % of control

CSc1ccccc1N=NN(C)C
inactive: [4] 101 % of control | [6] 97 % of control and 105 % of control | [8] 95 % of control and 100 % of control | dose: 800.0 mg/kg/injection, schedule: Q01DX009 (ip), vehicle: Klucel (hydroxypropylcellulose) (HPC) 121 % of control

CC(C)CC(=O)/C(CC(C)C)=N/O
inactive: [15] 96 % of control | [16] 104 % of control | [17] 96 % of control | [18] 96 % of control

CCCN(CCC)S(=O)(=O)CC
inactive: [10] 99 % of control | [11] 92 % of control | dose: 400.0 mg/kg/injection, schedule: Q04DX002 (ip), vehicle: saline with Tween-80 99 % of control

ClC1=NC(c2ccccc2)N2C(Cl)C12 (configuration not stated)
inactive: dose: 100.0 mg/kg/injection, schedule: Q01DX001 (ip), vehicle: saline with Tween-80 103 % of control | dose: 100.0 mg/kg/injection, schedule: Q01DX009 (ip), vehicle: saline with Tween-80 104 % of control | dose: 200.0 mg/kg/injection, schedule: Q01DX001 (ip), vehicle: saline with Tween-80 95 % of control | dose: 200.0 mg/kg/injection, schedule: Q01DX009 (ip), vehicle: saline with Tween-80 98 % of control | dose: 400.0 mg/kg/injection, schedule: Q01DX001 (ip), vehicle: saline with Tween-80 95 % of control | dose: 400.0 mg/kg/injection, schedule: Q01DX009 (ip), vehicle: saline with Tween-80 104 % of control

Cc1cccc(N2P(N(C)C)N(c3cccc(C)c3)P2(=O)N(C)C)c1 (configuration not stated)
inactive: dose: 100.0 mg/kg/injection, schedule: Q04DX002 (ip), vehicle: Klucel (hydroxypropylcellulose) (HPC) 97 % of control | dose: 200.0 mg/kg/injection, schedule: Q04DX002 (ip), vehicle: Klucel (hydroxypropylcellulose) (HPC) 111 % of control | dose: 400.0 mg/kg/injection, schedule: Q04DX002 (ip), vehicle: Klucel (hydroxypropylcellulose) (HPC) 94 % of control
